Measurements published in PubChem BioAssay (NCI).
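The compound was tested at five concentrations on cells cultured in 96-well plates, with a 48-hour exposure period. GI50 is the concentration that inhibits growth by half. The concentration for full growth arrest is given as TGI.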

How the values were obtained:
Assay in all cases: DTP human tumour cell line panel, 48 h
[1] = system: NCI-H522 lung
[2] = system: K-562 leukemia
[3] = system: CCRF-CEM leukemia
[4] = system: OVCAR-4 ovarian
[5] = system: SNB-19 CNS
[6] = system: HCT-116 colon
[7] = system: SF-539 CNS
[8] = system: MDA-MB-231 breast
[9] = system: HS 578T breast
[10] = system: BT-549 breast

SMILES | GI50 [1] [µM] | TGI [1] [µM] | GI50 [2] [µM] | TGI [2] [µM] | GI50 [3] [µM] | TGI [3] [µM] | GI50 [4] [µM] | TGI [4] [µM] | GI50 [5] [µM] | TGI [5] [µM] | GI50 [6] [µM] | TGI [6] [µM] | GI50 [7] [µM] | TGI [7] [µM] | GI50 [8] [µM] | TGI [8] [µM] | GI50 [9] [µM] | TGI [9] [µM] | GI50 [10] [µM] | TGI [10] [µM]
O=C(c1ccncc1)N1CCN(C2=NS(=O)(=O)c3ccccc3N2c2ccccc2)CC1 | 5.98 | 67 | 7.79 | > 100 | 1.95 | > 100 | 30.6 | > 100 | 15 | 44.9 | 14.5 | 33.3 | 3.85 | 22.8 | 30.7 | 75.2 | 29.3 | 81 | 17.1 | 52.1
CC#CC(=O)N[C@H]1CCCN(c2c(F)cc(C(N)=O)c3[nH]c(C)c(C)c23)C1 | 14.4 | 34.1 | 26.8 | > 100 | 27.5 | 85 | 22.5 | 81.3 | 15.3 | 28.6 | 16 | 31.2 | 13.3 | 28.4 | 14 | 29.1 | 16.4 | 83.3 | 14.9 | 30.3
COc1cc([N+](=O)[O-])c(OC)cc1-c1nc2n(c1/C(N)=N/C(=N)N)CCS2 | 47.7 | > 100 | > 100 | > 100 | > 100 | > 100 | 44 | > 100 | 10.2 | > 100 | 20.8 | > 100 | 26.2 | > 100 | 27 | > 100 | 32.5 | > 100 | > 100 | > 100
Cc1ccc2nc(CC(=O)c3ccc4ccccc4c3)c(=O)[nH]c2c1 | – | > 100 | – | > 100 | – | > 100 | – | > 100 | – | > 100 | – | > 100 | – | > 100 | – | > 100 | – | > 100 | – | > 100
C/C=C(\C)C(=O)OC1C2C(C)C(=O)OC2C(O)C(C)C2C=CC(=O)C21C (stereo not given) | – | 12.5 | – | 17.4 | – | 35.1 | – | > 74.7 | – | 26.3 | – | 22.6 | – | 36.4 | – | 13.7 | – | > 64.7 | – | 25.2
COC(=O)c1cc(NC(=O)CN(CCN(CC(=O)O)CC(=O)Nc2ccc(O)c(C(=O)OC)c2)CC(=O)O)ccc1O | 46.4 | > 100 | 96.4 | > 100 | 30.9 | > 100 | > 100 | > 100 | 41.9 | > 100 | 43.9 | > 100 | 29.4 | > 100 | > 100 | > 100 | > 100 | > 100 | 52.1 | > 100
NCC(=O)NC(CO)C(=O)O (stereo not given) | – | > 100 | – | > 100 | – | > 100 | – | > 100 | – | > 100 | – | > 100 | – | > 100 | – | > 100 | – | > 100 | – | > 100
CS(=O)(=O)N(CC(=O)O)Cc1ccccc1 | – | > 100 | – | > 100 | – | > 100 | – | > 100 | – | > 100 | – | > 100 | – | > 100 | – | > 100 | – | > 100 | – | > 100
